Our source for the IC50 values is patent publication US8188271B2, “Polycyclic carbamoylpyridone derivative having HIV integrase inhibitory activity” (Shionogi & Co., Ltd., priority 2005, dated 2012).

pIC50: −log10 of the molar value.

In this assay the target is HIV integrase (Human immunodeficiency virus type 1 group M subtype B, UniProt P04585). Description: HIV integrase inhibitory activity assay (strand transfer, immunoplate, OD405). Particulars: HIV integrase inhibition rate, absorbance OD405 nm. The format is biochemical. Here is the method: The HIV integrase inhibitory activity was investigated based on the following assay method.
(1) Preparation of DNA Solution
By the same method as that described in Experimental Example 1 of WO 2004/024693, a substrate DNA solution (2 μmol/μl) and a target DNA solution (5 μmol/μl) were prepared. […] Each sequence of a substrate DNA and a target DNA is as described in the same Experimental Example.
(2) Measurement of Inhibition Rate (IC50 Value)
Streptavidin (manufactured by Vector Laboratories) was dissolved in a 0.1 M carbonate buffer solution (composition: 90 mM Na2CO3, 10 mM NaHCO3) to a concentration of 40 μg/ml. Each 50 μl of this solution was added to a well of an immunoplate (manufactured by NUNC), and this is allowed to stand at 4° C. overnight to adsorb. Then, each well was washed with a phosphate buffer (composition: 13.7 mM NaCl, 0.27 mM KCl, 0.43 mM Na2HPO4, 0.14 mM KH2PO4) two times, and 300 μl of a phosphate buffer containing 1% skim milk was added to block it for 30 minutes. Further, each well was washed with a phosphate buffer two times, […] of a substrate DNA solution (2 μmol/μl) was added to adsorb at room temperature for 30 minutes while shaking, and this was washed with a phosphate buffer two times and, then, distilled water once.
Then, to each well prepared as described above were added 12 μl of a buffer (composition: 150 mM MOPS (pH7.2), 75 mM MnCl2, 50 mM 2-mercaptoethanol, 25% glycerol, 500 μg/ml bovine serum albumin-fraction V), and 51 μl of a reaction solution prepared from […] of distilled water. Then, 9 μl of an integrase solution (30 μmol) was added, and the mixture was mixed well. To a well as a negative control (NC) was added 9 μl of a diluting solution (composition: 20 mM MOPS (pH7.2), 400 mM potassium glutamete, 1 mM EDTA, 0.1% NP-40, 20% glycerol, 1 mM DTT, 4 M urea), and this was mixed well using a plate mixer.
After the plate was incubated at 30° C. for 60 minutes, the reaction solution was discarded, followed by washing with 250 μl of a washing buffer (composition: 150 mM MOPS (pH7.2), 50 mM 2-mercaptoethanol, 25% glycerol, 500 μg/ml bovine serum albumin-fraction V) three times.
Then, to each well were added 12 μl of a buffer (composition: 150 mM MOPS (pH7.2), 75 mM MgCl2, 50 mM 2-mercaptoethanol, 25% glycerol, 500 μg/ml bovine serum albumin-fraction V), and 53 μl of a reaction solution prepared from 41 μl of distilled water. Further, 6 μl of a solution of a test compound in DMSO was added to each well, and 6 μl of DMSO was added to a well as a positive control (PC), followed by mixing well using a plate mixer. […]
C abs.; absorbance of well of compound
NC abs.: absorbance of NC
PC abs.: absorbance of PC

In general, pIC50 refers to −log10 of the IC50, conventionally taken in molar units. As for `CN1CN(C[C@@H]2CCCO2)C(=O)c2c(O)c(=O)c(C(=O)NCc3ccc(F)cc3F)cn21` [Example N-15, 5-Hydroxy-1-methyl-4,6-dioxo-3-[(S)-1-(tetrahydro-furan-2-yl)methyl]-2,3,4,6-tetrahydro-1H-pyrid[2,1-f][1,2,4]triazine-7-carboxylic acid 2,4-difluoro-benzylamide], the pIC50 was 8.48.
`CN1CN(C[C@H]2CCCO2)C(=O)c2c(O)c(=O)c(C(=O)NCc3ccc(F)cc3F)cn21` [Example N-16, 5-Hydroxy-1-methyl-4,6-dioxo-3-[(R)-1-(tetrahydro-furan-2-yl)methyl]-2,3,4,6-tetrahydro-1H-pyrid[2,1-f][1,2,4]triazine-7-carboxylic acid 2,4-difluoro-benzylamide] gave a pIC50 of 8.59.
On to `O=C(NCc1ccc(F)cc1F)c1cn2c(c(O)c1=O)C(=O)N(C[C@@H]1CCCO1)CN2` [Example O-06, 5-Hydroxy-4,6-dioxo-3-[(S)-1-(tetrahydro-furan-2-yl)methyl]-2,3,4,6-tetrahydro-1H-pyrid[2,1-f][1,2,4]triazine-7-carboxylic acid 2,4-difluoro-benzylamide], for which the pIC50 was 8.42.
To `O=C(NCc1ccc(F)cc1F)c1cn2c(c(O)c1=O)C(=O)N(CCN1CCOCC1)CN2` [Example O-07, 5-Hydroxy-3-(2-morpholin-4-yl-ethyl)-4,6-dioxo-2,3,4,6-tetrahydro-1H-pyrid[2,1-f][1,2,4]triazine-7-carboxylic acid 2,4-difluoro-benzylamide] belongs 8.32.
